Test results published in US20230391781A1, “MALT1 MODULATORS AND USES THEREOF” (Rheos Medicines, Inc., priority 2020, published 2023).
Counter-ions that a name gives are not always drawn.

Assays:
[1] = test system: IL-2 in Jurkat (ATCC, clone E6.1) cells stimulated with anti-CD3/28/2; experiment: Jurkat IL-2 Assay; format: cell-based; conditions: Homo sapiens; IL-2 inhibition, Jurkat cells, 30 min compound then anti-CD3/28/2 stimulation for 24 hours; mean value if tested more than once; read-out: IC50
Experimental: Inhibition was determined in a cell-based assay using Jurkat (ATCC, clone E6.1), an immortalized T-cell line, exposed to a dose response of compound and assessed for viability, and Il-2 inhibition by ELISA. Cells were cultured in RPMI/10% FBS (Invitrogen 11875093, Atlanta Biologicals S12450H), maintained below 3E6/mL and only used in assays while below passage 25. Compounds were stamped by ECHO onto 384w plates (PerkinElmer Culturplate, 6007680). The cells were plated in fresh media on top of compound and incubated for 30 minutes before stimulation with soluble anti-CD3/28/2 (Stemcell, 10970) for 24 hours. Supernatant was collected and assessed for Il-2 (MSD, 384w, L21SA-1). To assess viability of cells treated with compound, cells were lysed with CTG reagent (Promega, G7570), and measured by luminometer. […] IC50s calculated using 4-parameter fit in GraphPad Prism.
In this table, “A” indicates IC50 of less than 0.1 μM; “B” indicates IC50 from 0.1 μM up to 1 μM; and “C” indicates IC50 of greater than 1 μM. “N/A” indicates not tested. For a compound that was tested in more than one experiment, the result shown represents the mean value.

full length MALT1 = full length MALT1 (Homo sapiens (Human), UniProt Q9UDY8); experiment: MALT1 Biochemical Assay; conditions: 15 nM enzyme, 30 μM peptide substrate Ac-Leu-Arg-Ser-Arg-Rh110-dPro, 30 min pre-incubation, 60 min reaction; mean value if tested more than once
full length MALT1, sequence (Q9UDY8 whole entry): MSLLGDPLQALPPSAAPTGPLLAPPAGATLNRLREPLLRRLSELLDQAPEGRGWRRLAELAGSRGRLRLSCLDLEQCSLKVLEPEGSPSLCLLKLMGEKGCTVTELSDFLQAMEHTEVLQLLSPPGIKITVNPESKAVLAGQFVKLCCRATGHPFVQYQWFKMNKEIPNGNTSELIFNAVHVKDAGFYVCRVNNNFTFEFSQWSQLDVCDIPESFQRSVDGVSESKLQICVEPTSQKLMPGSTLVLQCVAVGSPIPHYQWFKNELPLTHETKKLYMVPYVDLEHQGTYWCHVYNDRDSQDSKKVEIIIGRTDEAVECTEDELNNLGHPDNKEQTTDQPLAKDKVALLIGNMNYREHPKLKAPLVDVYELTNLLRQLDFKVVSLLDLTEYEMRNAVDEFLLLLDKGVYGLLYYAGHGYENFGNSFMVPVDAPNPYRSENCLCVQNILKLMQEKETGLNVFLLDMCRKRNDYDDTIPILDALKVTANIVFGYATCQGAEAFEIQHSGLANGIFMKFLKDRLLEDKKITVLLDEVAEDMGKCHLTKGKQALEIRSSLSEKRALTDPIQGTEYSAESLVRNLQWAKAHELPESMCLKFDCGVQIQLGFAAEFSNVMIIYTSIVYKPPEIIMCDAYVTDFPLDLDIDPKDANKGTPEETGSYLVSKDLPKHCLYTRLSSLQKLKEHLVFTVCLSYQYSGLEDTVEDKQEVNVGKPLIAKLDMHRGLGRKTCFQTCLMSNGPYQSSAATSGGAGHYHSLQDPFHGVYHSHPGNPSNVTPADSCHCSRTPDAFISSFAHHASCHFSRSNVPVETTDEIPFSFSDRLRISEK
Experimental: Inhibitor potency was evaluated by measuring enzymatic activity of full length MALT1 at varying concentrations of compound. The enzymatic assay consists of a single substrate reaction that monitors the release of a fluorescent dye upon cleavage of the peptide substrate. […] The assay buffer consists of 50 mM Hepes, pH 7.5, 0.8 M sodium citrate, 1 mM DTT, 0.004% tween-20, and 0.005% bovine serum albumin (BSA). […] The reaction was quenched after 60 minutes with the addition of iodoacetate at a final concentration of 10 mM. Total fluorescence was measured using an Envision (PerkinElmer) with fluorescence excitation at 485 nm and emission at […].
For potency determination, 1 μL of serially diluted compound (in 100% DMSO) was pre-incubated with 40 μL of enzyme for 30 minutes. The reaction was initiated with the addition of 10 μL of peptide substrate. The relative fluorescence units were transformed to percent inhibition by using 0% and 100% inhibition controls as reference. […] IC50 values were calculated by fitting the concentration-response curves to a four-parameter logistic equation in GraphPad Prism.

[2] = High Throughput Dialysis (HTD) Human Plasma Protein Binding Assay; format: in vitro ADME; conditions: pooled human plasma, pH 7.4, equilibrium dialysis, 37° C., read-out: Human PPB (% Unbound)
Experimental: Human plasma protein binding of various compounds of formula (I) were evaluated using the equilibrium dialysis method described herein.
The dialysis membrane strips (HTD % a/b, catalog number 1101, HTDialysis LLC, Gales Ferry, CT, USA) were soaked in ultra-pure water at room temperature for approximately 1 hour. Each membrane strip containing 2 membranes was separated and soaked in 20:80 ethanol/water (v/v) for approximately 20 minutes, after which they were ready for use or were stored in the solution at 2-8° C. for up to a month. Prior to the experiment, the membrane was rinsed three times and soaked for 20 minutes in ultra-pure water.
On the day of experiment, the human plasma (BiolVT, catalog number […], sodium heparin or EDTA-K2 anticoagulant, multiple individuals pooled) was thawed by running under cold tap water and centrifuged at 3220 rpm for 5 minutes to remove any clots. The pH value of the resulting plasma was confirmed to be 7.0-8.0.
The test compounds and warfarin control (Stru Chem, catalog number SC-16139) were dissolved in dimethyl sulfoxide (DMSO) to obtain 10 mM stock solutions. DMSO working solutions were prepared at 400 μM. To prepare the loading matrix, the compound working solutions (5 μL) were added in a 1:200 ratio to blank human plasma (995 μL) and mixed thoroughly.
The time zero (T0) samples to be used for recovery determination were prepared as follows: 50 μL aliquots of loading matrix were transferred in triplicate to the sample collection plate. The samples were immediately matched with opposite blank buffer (basic solution (14.2 g/L Na2HPO4 and 8.77 g/L NaCl in deionized water) titrated with acidic solution (15.6 g/L NaH2PO4·2H2O and 8.77 g/L NaCl in deionized water) to pH 7.4±0.1) to obtain a final volume of 100 μL of 1:1 matrix/dialysis buffer (v/v) in each well. 500 μL stop solution (200 ng/mL tolbutamide and 200 ng/mL labetalol in acetonitrile) were added to these TO samples. They were then stored at 2-8° C. for further processing along with other post-dialysis samples.
To load the dialysis device (96-well equilibrium dialysis plate, model 96b, catalog number 1006. HTDialysis LLC, Gales Ferry, CT, USA), an aliquot of 150 μL of the loading matrix was transferred to the donor side of each dialysis well in triplicate, and 150 μL of the dialysis buffer was loaded to the receiver side of the well. The dialysis plate was placed in a humidified incubator at 37° C. with 5% CO2 on a shaking platform that rotated slowly (about 100 rpm) for 4 hours.
At the end of the dialysis, aliquots of 50 μL of the samples were taken from both the buffer side and the matrix side of the dialysis device. These samples were transferred into new 96-well plates (polypropylene, 2.2 mL/well, catalog number DWP-22-96-SQ-U-C-L. Apricot). Each sample was mixed with an equal volume of opposite blank matrix (buffer or matrix) to reach a final volume of 100 μL of 1:1 matrix/dialysis buffer (v/v) in each well. All samples were further processed by adding 500 μL of stop solution containing internal standards. The mixture was vortexed and centrifuged at 4000 rpm for about 20 minutes. An aliquot of 100 μL of supernatant of all the samples was then removed for LC-MS/MS analysis. Test compound concentrations in matrix and buffer samples were expressed as peak area ratios (PAR) of analyte/internal standard (no standard curve).
The single blank samples were prepared by transferring 50 μL of blank matrix to a 96 well plate (polypropylene. 2.2 mL/well, catalog number DWP-22-96-SQ-U-C-L, Apricot) and adding 50 μL of blank PBS buffer to each well. The blank plasma must match the species of plasma used in the plasma side of the well. Then the matrix-matched samples were further processed by adding 500 μL of stop solution containing internal standards, following the same sample processing method as the dialysis samples. […]

Row | SMILES | IC50 [1] [nM] | IC50 (full length MALT1) [nM] | fraction unbound at 4 h, 2 µM [2]
1 | CO[C@@H](C)c1c(Nc2ccc([C@H](N(C)C(=O)[C@H]3CC[C@H](C(N)=O)CC3)C(F)(F)F)cc2)cnc2nc(Cl)nn12 [Compound 8.1, (1r,4S)—N1-((S)-1-(4-((2-chloro-7-((S)-1-methoxyethyl)-[1,2,4]triazolo[1,5-a]pyrimidin-6-yl)amino)phenyl)-2,2,2-trifluoroethyl)-N1-methylcyclohexane-1,4-dicarboxamide] | 100 to 1000 | < 100 | 0.08 to 0.2
2 | CO[C@@H](C)c1c(Nc2ccc([C@H](N(C)C(=O)C3CCN(S(C)(=O)=O)C3)C(F)(F)F)cc2)cnc2nc(Cl)nn12 (stereo partly drawn) [Compound 3.10, N-[(1S)-1-[4-({2-chloro-7-[(1S)-1-methoxyethyl]-[1,2,4]triazolo[1,5-a]pyrimidin-6-yl}amino)phenyl]-2,2,2-trifluoroethyl]-1-methanesulfonyl-N-methylpyrrolidine-3-carboxamide] | 100 to 1000 | 100 to 1000 | 0.08 to 0.2
3 | CO[C@@H](C)c1c(Nc2ccc([C@H](N(C)C(=O)C3CCCN(C(C)=O)C3)C(F)(F)F)cc2)cnc2nc(Cl)nn12 (stereo partly drawn) [Compound 3.5, 1-acetyl-N-[(1S)-1-[4-({2-chloro-7-[(1S)-1-methoxyethyl]-[1,2,4]triazolo[1,5-a]pyrimidin-6-yl}amino)phenyl]-2,2,2-trifluoroethyl]-N-methylpiperidine-3-carboxamide] | 100 to 1000 | < 100 | –
4 | CC(C)c1c(Nc2ccc([C@H](N(C)C(=O)[C@H]3CC[C@H](C(=O)O)CC3)C(F)(F)F)cc2)cnc2nc(Cl)nn12 [Compound 7.2, (1S,4r)-4-(((S)-1-(4-((2-chloro-7-isopropyl-[1,2,4]triazolo[1,5-a]pyrimidin-6-yl)amino)phenyl)-2,2,2-trifluoroethyl)(methyl)carbamoyl)cyclohexane-1-carboxylic acid ammonia salt] | 100 to 1000 | < 100 | –
5 | CO[C@@H](C)c1c(Nc2ccc([C@H](N(C)C(=O)C3CCN(C)C3)C(F)(F)F)cc2)cnc2nc(Cl)nn12 (stereo partly drawn) [Compound 5.3, N-[(1S)-1-[4-({2-chloro-7-[(1S)-1-methoxyethyl]-[1,2,4]triazolo[1,5-a]pyrimidin-6-yl}amino)phenyl]-2,2,2-trifluoroethyl]-N,1-dimethylpyrrolidine-3-carboxamide hydrochloride] | > 1000 | 100 to 1000 | –
6 | CO[C@@H](C)c1c(Nc2ccc([C@H](N(C)C(=O)[C@H]3CC[C@H](O)CC3)C(F)(F)F)cc2)cnc2nc(Cl)nn12 [Compound 6.1, (1r,4S)—N—((S)-1-(4-((2-chloro-7-((S)-1-methoxyethyl)-[1,2,4]triazolo[1,5-a]pyrimidin-6-yl)amino)phenyl)-2,2,2-trifluoroethyl)-4-hydroxy-N-methylcyclohexane-1-carboxamide] | 100 to 1000 | < 100 | –
7 | CO[C@@H](C)c1c(Nc2ccc([C@H](N(C)C(=O)C3CCN(C(=O)OC(C)(C)C)C3)C(F)(F)F)cc2)cnc2nc(Cl)nn12 (stereo partly drawn) [Compound 1.12, Tert-butyl 3-{[(1S)-1-[4-({2-chloro-7-[(1S)-1-methoxyethyl]-[1,2,4]triazolo[1,5-a]pyrimidin-6-yl}amino)phenyl]-2,2,2-trifluoroethyl](methyl)carbamoyl}pyrrolidine-1-carboxylate] | > 1000 | 100 to 1000 | –
8 | CO[C@H](C)c1c(Nc2ccc([C@@H](N(C)C(=O)C3CCS(=O)(=O)CC3)C(F)(F)F)cc2)cnc2nc(Cl)nn12 [Compound 1.27, N-[(1R)-1-[4-({2-chloro-7-[(1R)-1-methoxyethyl]-[1,2,4]triazolo[1,5-a]pyrimidin-6-yl}amino)phenyl]-2,2,2-trifluoroethyl]-N-methyl-1,1-dioxo-1λ^6-thiane-4-carboxamide] | > 1000 | > 1000 | –
9 | CO[C@@H](C)c1c(Nc2ccc(C(C)N(C)C(C)=O)cc2)cnc2nc(Cl)nn12 (stereo partly drawn) [Compound 1.24, N-{1-[4-({2-chloro-7-[(1S)-1-methoxyethyl]-[1,2,4]triazolo[1,5-a]pyrimidin-6-yl}amino)phenyl]ethyl}-N-methylacetamide] | > 1000 | > 1000 | –
10 | CO[C@@H](C)c1c(Nc2ccc(C(C)N(C)C(=O)C3CCCC3)cc2)cnc2nc(Cl)nn12 (stereo partly drawn) [Compound 1.22, N-{1-[4-({2-chloro-7-[(1S)-1-methoxyethyl]-[1,2,4]triazolo[1,5-a]pyrimidin-6-yl}amino)phenyl]ethyl}-N-methylcyclopentanecarboxamide] | > 1000 | > 1000 | –
11 | CO[C@@H](C)c1c(Nc2ccc([C@H](N(C)C(=O)C3CCS(=O)(=O)CC3)C(F)(F)F)cc2C)cnc2nc(Cl)nn12 [Compound 1.33, N-[(1S)-1-[4-({2-chloro-7-[(1S)-1-methoxyethyl]-[1,2,4]triazolo[1,5-a]pyrimidin-6-yl}amino)-3-methylphenyl]-2,2,2-trifluoroethyl]-N-methyl-1,1-dioxo-1λ^6-thiane-4-carboxamide] | > 1000 | 100 to 1000 | –
12 | CO[C@@H](C)c1c(Nc2ccc([C@H](N(C)C(=O)C3CCC(CNC(C)=O)CC3)C(F)(F)F)cc2)cnc2nc(Cl)nn12 (stereo partly drawn) [Compound 3.11, N-[(1S)-1-[4-({2-chloro-7-[(1S)-1-methoxyethyl]-[1,2,4]triazolo[1,5-a]pyrimidin-6-yl}amino)phenyl]-2,2,2-trifluoroethyl]-4-(acetamidomethyl)-N-methylcyclohexane-1-carboxamide] | 100 to 1000 | < 100 | –
13 | CO[C@@H](C)c1c(Nc2ccc([C@H](N(C)C(=O)C3CCNC3)C(F)(F)F)cc2)cnc2nc(Cl)nn12 (stereo partly drawn) [Compound 2.3, N—((S)-1-(4-((2-chloro-7-((S)-1-methoxyethyl)-[1,2,4]triazolo[1,5-a]pyrimidin-6-yl)amino)phenyl)-2,2,2-trifluoroethyl)-N-methylpyrrolidine-3-carboxamide hydrochloride] | 100 to 1000 | 100 to 1000 | –
